Earlier results as cited in US20210134402A1, “METHODS AND SYSTEMS FOR PREDICTING SUCCESS RATES OF CLINICAL TRIALS” (THE TRUSTEES OF COLUMBIA UNIVERSITY IN THE CITY OF NEW YORK, priority 2018, published 2021).

Details: trial in follicular lymphoma

Nc1ccccc1NC(=O)c1ccc(CNc2nccc(-c3cccnc3)n2)cc1 [mocetinostat]
side effects observed in the trial: anaemia, neutropenia, nausea, and diarrhea
trial status: put on hold due to toxicity concerns
